US20160310501A1, “GABA[…] SIGMA RECEPTOR LIGANDS COMBINATIONS” (LABORATORIOS DEL DR. ESTEVE, S.A., priority 2013, published 2016)
Counter-ions that a name gives are not always drawn.

System: post-operative pain model in rats
Experiment: Mechanical allodynia (von Frey filaments) in the post-operative pain model (plantar incision)
Assay type: in vivo
Procedure: The induction of anesthesia in rats was performed with 3% isofluran for veterinary use, employing an Ohmeda vaporizer and an anesthesia chamber. Anesthesia was kept during the surgical operation by a tube which directs the isofluran vapors to the animal's snout. Once the rats were anesthetized, they were laid down in a prone position and their right hind paws were cleaned out with alcohol.
Then, a skin incision in the hindpaw of about 10 mm was made by means of a scalpel, starting about 5 mm from the heel and extending toward the toes. Fascia was located and by means of curve scissors muscle was elevated and a longitudinal incision of about 5 mm was made, thus the muscle origin and insertion remained intact. The skin of the paw was stitched with a suturing stitch with breaded silk (3.0) and the wound was cleaned out with povidone.
The assessment was performed 30 minutes after the administration of product and always 4 hours after the plantar incision. The analysis was carried out evaluating the mechanical allodynia. It was tested using von Frey filaments: Animals were placed in methacrylate cylinders on an elevated surface, with metallic mesh floor perforated in order to apply the filaments. After an acclimation period of about 30 minutes within the cylinders, both hindpaws were stimulated (the injured and the non-injured paw, serving the latter as control), starting with the lowest force filament (0.4 g) and reaching a 15 g filament. The animal's response to pain was manifested by the withdrawal of the paw as a consequence of the painful stimulus caused by a filament.
(§1) The efficacy of the combined use of Pregabalin and compound 63.HCl was tested at different doses of compound 63.HCl (5, 10, 20, 40 and 80 mg/kg), while the Pregabalin dose remained constant (0.04 mg/kg). The administrations were performed 3.5 hours after surgery. The treated subjects were tested according to the mechanical allodynia protocol above (FIG. 1).
as §1, with “Gabapentin” for “Pregabalin”, “(10,” for “(5, 10,”, “(10” for “(0.04”, “2).” for “1).”

NCC1(CC(=O)O)CCCCC1 [Gabapentin]
effect (analgesia, mechanical allodynia) (Gabapentin alone at 10 mg/kg, non-significant, FIG. 2): 0±2%

CC(C)C[C@H](CN)CC(=O)O [Pregabalin]
effect (analgesia, mechanical allodynia) (Pregabalin alone, sub-active dose 0.04 mg/kg, FIG. 1): non-significant effect

Cc1cc(OCCN2CCOCC2)nn1-c1ccc2ccccc2c1 [compound 63.HCl, 4-{2-[5-Methyl-1-(naphthalen-2-yl)-1H-pyrazol-3-yloxy]ethyl}morpholine hydrochloride]
ED50 (Rattus norvegicus, compound alone, 10, 20, 40 and 80 mg/kg, FIG. 2): 40 mg/kg | Emax (Rattus norvegicus, compound alone, dose dependent (5, 10, 20, 40 and 80 mg/kg), FIG. 1, 30 min after administration, 4 h after plantar incision, read-out: maximum effect): 43%
